Laboratory results from ChEMBL document CHEMBL3393036, “Tetra-substituted pyridinylimidazoles as dual inhibitors of p38α mitogen-activated protein kinase and c-Jun N-terminal kinase 3 for potential treatment of neurodegenerative diseases” (J Med Chem, 2015).

Tests used:
[1] = target: T1, Serine/threonine-protein kinase 17B (Homo sapiens) (UniProt O94768); assay: Inhibition of STK17B (unknown origin) at 5.5 uM by Caliper Mobility Shift Assay
T1 sequence (whole entry): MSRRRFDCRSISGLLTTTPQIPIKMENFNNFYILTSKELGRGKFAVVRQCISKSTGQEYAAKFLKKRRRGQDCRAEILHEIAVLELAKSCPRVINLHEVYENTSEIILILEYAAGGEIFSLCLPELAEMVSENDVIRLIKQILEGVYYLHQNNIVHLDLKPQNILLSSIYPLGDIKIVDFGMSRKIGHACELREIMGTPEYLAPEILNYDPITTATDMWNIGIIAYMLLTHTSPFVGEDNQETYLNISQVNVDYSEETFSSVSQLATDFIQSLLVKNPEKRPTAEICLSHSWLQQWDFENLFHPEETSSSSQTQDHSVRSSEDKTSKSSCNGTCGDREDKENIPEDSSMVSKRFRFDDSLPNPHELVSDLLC

[2] = target: Mitogen-activated protein kinase 10 (Homo sapiens, UniProt P53779); assay: Inhibition of JNK3 (unknown origin) assessed as phosphorylation of ATF-2 by ELISA
Chain of Mitogen-activated protein kinase 10 (P53779 whole entry): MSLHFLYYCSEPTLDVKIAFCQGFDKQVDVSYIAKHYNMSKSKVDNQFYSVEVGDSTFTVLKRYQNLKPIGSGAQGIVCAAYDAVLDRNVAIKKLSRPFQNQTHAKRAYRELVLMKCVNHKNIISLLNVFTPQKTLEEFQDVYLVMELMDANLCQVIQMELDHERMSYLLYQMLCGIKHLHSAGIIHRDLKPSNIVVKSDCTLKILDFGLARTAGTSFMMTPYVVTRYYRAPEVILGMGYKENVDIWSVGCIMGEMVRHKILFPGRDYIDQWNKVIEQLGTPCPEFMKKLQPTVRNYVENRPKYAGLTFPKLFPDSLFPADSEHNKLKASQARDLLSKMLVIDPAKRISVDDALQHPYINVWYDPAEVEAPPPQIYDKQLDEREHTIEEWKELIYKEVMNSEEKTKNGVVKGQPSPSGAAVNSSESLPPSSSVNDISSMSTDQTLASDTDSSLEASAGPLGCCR

Homo sapiens [3] = organism: Homo sapiens; assay: Selectivity ratio of IC50 for JNK3 (unknown origin) to IC50 for p38alpha (unknown origin)
[4] = target: MAP kinase-interacting serine/threonine-protein kinase 1 (Homo sapiens) (UniProt Q9BUB5); assay: Inhibition of MKNK1 (unknown origin) at 5.5 uM by Caliper Mobility Shift Assay
[5] = target: MAP kinase-activated protein kinase 2 (Homo sapiens) (UniProt P49137); assay: Inhibition of MK2 (unknown origin) at 5.5 uM by Caliper Mobility Shift Assay
Chain of MAP kinase-activated protein kinase 2 (Homo sapiens) (P49137 whole entry, looked up): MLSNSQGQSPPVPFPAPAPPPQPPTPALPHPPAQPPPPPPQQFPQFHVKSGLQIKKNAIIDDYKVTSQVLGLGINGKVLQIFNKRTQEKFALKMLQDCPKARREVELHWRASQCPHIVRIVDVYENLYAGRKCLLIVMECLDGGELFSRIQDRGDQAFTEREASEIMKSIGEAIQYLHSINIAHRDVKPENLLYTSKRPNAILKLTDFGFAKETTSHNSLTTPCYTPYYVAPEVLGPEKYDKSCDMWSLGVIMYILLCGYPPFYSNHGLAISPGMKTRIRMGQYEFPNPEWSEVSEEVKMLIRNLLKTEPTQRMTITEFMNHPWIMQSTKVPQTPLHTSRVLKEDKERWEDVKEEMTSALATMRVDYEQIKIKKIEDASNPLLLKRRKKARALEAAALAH

[6] = target: RAC-alpha serine/threonine-protein kinase (Homo sapiens) (UniProt P31749); assay: Inhibition of AKT1 (PKBa) (unknown origin) at 5.5 uM by Caliper Mobility Shift Assay
[7] = target: Platelet-derived growth factor receptor alpha (Homo sapiens) (UniProt P16234); assay: Inhibition of PDGFRa (unknown origin) at 5.5 uM by Caliper Mobility Shift Assay
[8] = target: Mitogen-activated protein kinase 8 (Homo sapiens) (UniProt P45983); assay: Inhibition of JNK1 (unknown origin) at 5.5 uM by Caliper Mobility Shift Assay
Chain of Mitogen-activated protein kinase 8 (Homo sapiens) (P45983 whole entry): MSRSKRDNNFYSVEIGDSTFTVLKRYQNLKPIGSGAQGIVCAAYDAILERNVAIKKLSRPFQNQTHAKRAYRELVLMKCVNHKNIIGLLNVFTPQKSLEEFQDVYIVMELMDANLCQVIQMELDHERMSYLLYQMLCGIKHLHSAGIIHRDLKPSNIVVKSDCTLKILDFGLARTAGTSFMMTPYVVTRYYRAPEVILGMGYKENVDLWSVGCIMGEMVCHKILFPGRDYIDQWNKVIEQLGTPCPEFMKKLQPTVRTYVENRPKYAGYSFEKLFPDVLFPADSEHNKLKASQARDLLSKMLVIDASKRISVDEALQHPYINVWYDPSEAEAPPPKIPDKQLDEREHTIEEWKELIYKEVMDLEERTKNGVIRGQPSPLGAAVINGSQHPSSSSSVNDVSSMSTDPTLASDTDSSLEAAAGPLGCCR

[9] = target: Interleukin-1 receptor-associated kinase 1 (Homo sapiens) (UniProt P51617); assay: Inhibition of IRAK1 (unknown origin) at 5.5 uM by Caliper Mobility Shift Assay
[10] = target: Fibroblast growth factor receptor 4 (Homo sapiens) (UniProt P22455); assay: Inhibition of FGFR4 (unknown origin) at 5.5 uM by Caliper Mobility Shift Assay
[11] = target: T2, Activin receptor type-1 (Homo sapiens) (UniProt Q04771); assay: Inhibition of ACVR1 (ALK2) (unknown origin) at 5.5 uM by Caliper Mobility Shift Assay
T2 sequence (whole entry): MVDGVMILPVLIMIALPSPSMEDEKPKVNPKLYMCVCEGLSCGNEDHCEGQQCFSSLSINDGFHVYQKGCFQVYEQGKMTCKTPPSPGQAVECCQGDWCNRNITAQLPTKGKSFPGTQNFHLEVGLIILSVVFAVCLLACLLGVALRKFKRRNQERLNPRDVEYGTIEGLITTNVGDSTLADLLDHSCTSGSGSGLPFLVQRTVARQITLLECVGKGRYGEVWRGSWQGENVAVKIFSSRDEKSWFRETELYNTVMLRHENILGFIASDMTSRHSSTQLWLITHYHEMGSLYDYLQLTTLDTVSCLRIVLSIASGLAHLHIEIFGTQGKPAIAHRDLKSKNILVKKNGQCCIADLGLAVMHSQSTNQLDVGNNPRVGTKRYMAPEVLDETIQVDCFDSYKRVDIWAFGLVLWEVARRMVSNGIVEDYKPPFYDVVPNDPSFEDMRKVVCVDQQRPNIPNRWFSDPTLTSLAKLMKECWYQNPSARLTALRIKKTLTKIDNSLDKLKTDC

[12] = target: Receptor tyrosine-protein kinase erbB-4 (Homo sapiens) (UniProt Q15303); assay: Inhibition of ERBB4 (HER4) (unknown origin) at 5.5 uM by Caliper Mobility Shift Assay
Chain of Receptor tyrosine-protein kinase erbB-4 (Homo sapiens) (Q15303 whole entry): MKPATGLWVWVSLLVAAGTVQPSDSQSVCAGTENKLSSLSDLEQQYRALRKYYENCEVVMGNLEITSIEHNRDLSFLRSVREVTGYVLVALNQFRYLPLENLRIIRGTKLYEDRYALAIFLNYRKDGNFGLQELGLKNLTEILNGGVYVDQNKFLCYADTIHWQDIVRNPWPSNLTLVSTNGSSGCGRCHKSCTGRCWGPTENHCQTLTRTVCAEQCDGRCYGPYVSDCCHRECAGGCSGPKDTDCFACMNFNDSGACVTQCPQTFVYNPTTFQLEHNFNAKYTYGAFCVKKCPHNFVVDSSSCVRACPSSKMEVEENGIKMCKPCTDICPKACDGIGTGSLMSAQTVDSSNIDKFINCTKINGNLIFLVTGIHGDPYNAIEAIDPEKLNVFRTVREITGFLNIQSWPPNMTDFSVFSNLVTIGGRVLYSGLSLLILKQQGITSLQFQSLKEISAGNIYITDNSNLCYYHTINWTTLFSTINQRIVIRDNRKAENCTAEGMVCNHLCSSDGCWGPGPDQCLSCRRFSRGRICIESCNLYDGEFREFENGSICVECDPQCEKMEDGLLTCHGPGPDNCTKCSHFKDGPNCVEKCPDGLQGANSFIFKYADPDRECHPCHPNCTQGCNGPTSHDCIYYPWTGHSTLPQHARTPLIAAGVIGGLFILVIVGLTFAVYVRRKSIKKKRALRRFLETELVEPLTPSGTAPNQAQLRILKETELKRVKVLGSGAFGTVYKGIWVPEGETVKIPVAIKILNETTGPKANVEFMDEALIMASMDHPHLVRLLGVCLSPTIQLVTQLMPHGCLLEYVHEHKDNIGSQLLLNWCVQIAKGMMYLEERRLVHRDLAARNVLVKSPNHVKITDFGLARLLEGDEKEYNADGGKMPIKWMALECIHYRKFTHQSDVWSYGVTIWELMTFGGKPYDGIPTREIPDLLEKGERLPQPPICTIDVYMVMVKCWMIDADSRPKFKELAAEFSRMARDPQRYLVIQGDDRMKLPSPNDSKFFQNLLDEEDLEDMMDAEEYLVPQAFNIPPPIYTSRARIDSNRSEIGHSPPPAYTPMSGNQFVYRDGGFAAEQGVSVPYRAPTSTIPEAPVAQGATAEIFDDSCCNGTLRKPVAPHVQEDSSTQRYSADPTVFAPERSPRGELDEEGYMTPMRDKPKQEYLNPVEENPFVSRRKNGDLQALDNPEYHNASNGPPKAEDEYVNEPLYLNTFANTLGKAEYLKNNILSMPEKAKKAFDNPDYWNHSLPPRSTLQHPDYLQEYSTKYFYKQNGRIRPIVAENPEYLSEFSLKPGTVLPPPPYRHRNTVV

[13] = target: Fibroblast growth factor receptor 1 (Homo sapiens) (UniProt P11362); assay: Inhibition of FGFR1 (unknown origin) at 5.5 uM by Caliper Mobility Shift Assay
[14] = target: Glycogen synthase kinase-3 beta (Homo sapiens) (UniProt P49841); assay: Inhibition of GSK3beta (unknown origin) at 5.5 uM by Caliper Mobility Shift Assay
[15] = target: Tyrosine-protein kinase CSK (Homo sapiens) (UniProt P41240); assay: Inhibition of CSK (unknown origin) at 5.5 uM by Caliper Mobility Shift Assay
[16] = target: Calcium/calmodulin-dependent protein kinase type II subunit beta (Homo sapiens) (UniProt Q13554); assay: Inhibition of CAMK2 (unknown origin) at 5.5 uM by Caliper Mobility Shift Assay
Chain of Calcium/calmodulin-dependent protein kinase type II subunit beta (Homo sapiens) (Q13554 whole entry): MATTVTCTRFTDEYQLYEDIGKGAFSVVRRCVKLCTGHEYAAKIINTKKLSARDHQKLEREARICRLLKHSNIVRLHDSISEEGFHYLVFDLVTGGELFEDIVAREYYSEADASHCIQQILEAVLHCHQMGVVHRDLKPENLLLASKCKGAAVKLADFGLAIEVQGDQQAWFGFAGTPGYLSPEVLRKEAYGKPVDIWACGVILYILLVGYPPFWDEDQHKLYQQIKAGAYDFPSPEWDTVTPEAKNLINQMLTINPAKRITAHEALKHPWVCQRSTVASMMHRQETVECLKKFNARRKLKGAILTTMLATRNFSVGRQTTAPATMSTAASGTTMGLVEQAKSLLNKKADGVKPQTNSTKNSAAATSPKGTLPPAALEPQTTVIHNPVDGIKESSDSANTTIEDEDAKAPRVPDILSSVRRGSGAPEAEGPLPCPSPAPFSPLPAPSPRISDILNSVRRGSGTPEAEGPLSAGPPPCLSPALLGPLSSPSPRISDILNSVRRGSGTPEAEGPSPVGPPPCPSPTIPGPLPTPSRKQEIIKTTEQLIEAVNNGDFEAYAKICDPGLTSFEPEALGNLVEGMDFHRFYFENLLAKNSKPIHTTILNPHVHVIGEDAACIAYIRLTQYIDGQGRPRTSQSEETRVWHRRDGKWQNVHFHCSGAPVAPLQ

[17] = target: Vascular endothelial growth factor receptor 2 (Homo sapiens) (UniProt P35968); assay: Inhibition of KDR (unknown origin) at 5.5 uM by Caliper Mobility Shift Assay
[18] = target: Tyrosine-protein kinase JAK1 (Homo sapiens) (UniProt P23458); assay: Inhibition of JAK1 (unknown origin) at 5.5 uM by Caliper Mobility Shift Assay
[19] = target: Serine/threonine-protein kinase WNK1 (Homo sapiens) (UniProt Q9H4A3); assay: Inhibition of WNK1 (unknown origin) at 5.5 uM by Caliper Mobility Shift Assay
[20] = target: Hepatocyte growth factor receptor (Homo sapiens) (UniProt P08581); assay: Inhibition of MET (unknown origin) at 5.5 uM by Caliper Mobility Shift Assay
Homo sapiens [21] = organism: Homo sapiens; assay: Inhibition of CDK1B (unknown origin) at 5.5 uM by Caliper Mobility Shift Assay
[22] = target: Proto-oncogene tyrosine-protein kinase Src (Homo sapiens) (UniProt P12931); assay: Inhibition of cSRC (unknown origin) at 5.5 uM by Caliper Mobility Shift Assay
Chain of Proto-oncogene tyrosine-protein kinase Src (Homo sapiens) (P12931 2-536 limits assumed): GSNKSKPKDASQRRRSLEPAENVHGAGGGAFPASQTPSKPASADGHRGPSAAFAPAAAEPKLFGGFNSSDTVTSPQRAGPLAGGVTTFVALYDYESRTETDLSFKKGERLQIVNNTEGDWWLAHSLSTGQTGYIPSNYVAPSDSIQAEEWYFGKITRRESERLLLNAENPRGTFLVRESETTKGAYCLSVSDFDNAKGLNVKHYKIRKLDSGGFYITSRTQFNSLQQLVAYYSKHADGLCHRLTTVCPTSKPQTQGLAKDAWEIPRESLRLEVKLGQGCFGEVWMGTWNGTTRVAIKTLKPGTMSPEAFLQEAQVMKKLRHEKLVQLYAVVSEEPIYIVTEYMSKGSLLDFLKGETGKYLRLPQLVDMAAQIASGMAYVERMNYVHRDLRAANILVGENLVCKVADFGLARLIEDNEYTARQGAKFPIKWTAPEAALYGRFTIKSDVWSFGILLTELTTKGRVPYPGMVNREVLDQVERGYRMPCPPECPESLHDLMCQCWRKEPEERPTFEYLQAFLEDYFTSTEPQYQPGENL

[23] = target: Insulin receptor (Homo sapiens) (UniProt P06213); assay: Inhibition of INSR (unknown origin) at 5.5 uM by Caliper Mobility Shift Assay
[24] = target: Mitogen-activated protein kinase kinase kinase 8 (Homo sapiens) (UniProt P41279); assay: Inhibition of MAP3K8 (unknown origin) at 5.5 uM by Caliper Mobility Shift Assay
[25] = test system: Fibroblast growth factor receptor 3 (Homo sapiens), P22607 [K650E]; assay: Inhibition of FGFR3 K650E (unknown origin) at 5.5 uM by Caliper Mobility Shift Assay
[26] = target: Proto-oncogene tyrosine-protein kinase receptor Ret (Homo sapiens) (UniProt P07949); assay: Inhibition of RET (unknown origin) at 5.5 uM by Caliper Mobility Shift Assay
Chain of Proto-oncogene tyrosine-protein kinase receptor Ret (Homo sapiens) (P07949 whole entry): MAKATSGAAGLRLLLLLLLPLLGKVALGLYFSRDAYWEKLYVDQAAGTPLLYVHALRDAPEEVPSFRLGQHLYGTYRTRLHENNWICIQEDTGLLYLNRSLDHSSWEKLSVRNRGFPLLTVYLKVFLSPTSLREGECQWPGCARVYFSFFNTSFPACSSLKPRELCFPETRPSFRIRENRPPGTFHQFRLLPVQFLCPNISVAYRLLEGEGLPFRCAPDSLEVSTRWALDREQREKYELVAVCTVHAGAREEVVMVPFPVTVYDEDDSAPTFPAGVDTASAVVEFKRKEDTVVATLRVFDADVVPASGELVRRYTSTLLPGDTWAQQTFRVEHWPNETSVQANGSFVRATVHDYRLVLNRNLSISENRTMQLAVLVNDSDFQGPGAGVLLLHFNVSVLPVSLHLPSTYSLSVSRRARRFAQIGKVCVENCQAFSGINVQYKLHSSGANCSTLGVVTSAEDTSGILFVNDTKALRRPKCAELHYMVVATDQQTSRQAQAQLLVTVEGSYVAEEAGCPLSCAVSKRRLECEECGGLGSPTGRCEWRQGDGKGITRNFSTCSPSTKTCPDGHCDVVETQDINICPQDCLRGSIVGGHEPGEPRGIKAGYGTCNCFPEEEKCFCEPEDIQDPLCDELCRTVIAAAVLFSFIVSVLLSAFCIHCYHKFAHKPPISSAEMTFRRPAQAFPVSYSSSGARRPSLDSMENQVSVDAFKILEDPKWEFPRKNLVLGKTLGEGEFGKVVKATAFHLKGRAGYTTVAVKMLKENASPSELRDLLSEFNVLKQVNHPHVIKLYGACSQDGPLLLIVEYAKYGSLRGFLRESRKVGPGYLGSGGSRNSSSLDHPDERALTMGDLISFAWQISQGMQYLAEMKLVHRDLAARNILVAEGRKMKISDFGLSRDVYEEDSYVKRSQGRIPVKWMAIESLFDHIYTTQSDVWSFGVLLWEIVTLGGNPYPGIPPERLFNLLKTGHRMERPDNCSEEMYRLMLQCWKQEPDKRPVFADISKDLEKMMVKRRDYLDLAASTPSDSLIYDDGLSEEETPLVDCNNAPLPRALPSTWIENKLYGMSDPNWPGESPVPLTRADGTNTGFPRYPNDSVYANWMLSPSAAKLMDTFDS

[27] = target: Mitogen-activated protein kinase kinase kinase kinase 4 (Homo sapiens) (UniProt O95819); assay: Inhibition of MAP4K4 (unknown origin) at 5.5 uM by Caliper Mobility Shift Assay

Row | Compound | inhibition [1] [%] | IC50 [2] [nM] | Ratio IC50 (Homo sapiens [3]) | inhibition [4] [%] | inhibition [5] [%] | inhibition [6] [%] | inhibition [7] [%] | inhibition [8] [%] | inhibition [9] [%] | inhibition [10] [%] | inhibition [11] [%] | inhibition [12] [%] | inhibition [13] [%] | inhibition [14] [%] | inhibition [15] [%] | inhibition [16] [%] | inhibition [17] [%] | inhibition [18] [%] | inhibition [19] [%] | inhibition [20] [%] | other results
1 | CC(=O)Nc1cc(-c2c(-c3ccc(F)cc3)nc(Sc3cccc(I)n3)n2C2CCCCC2)ccn1 | < 50 | 1530 | 4.3 | < 50 | < 50 | < 50 | < 50 | < 50 | < 50 | < 50 | < 50 | < 50 | < 50 | < 50 | < 50 | < 50 | < 50 | < 50 | < 50 | < 50 | inhibition (Homo sapiens [21]): < 50%; inhibition [22]: < 50%; inhibition [23]: < 50%; inhibition [24]: < 50%; inhibition [25]: < 50%; inhibition [26]: < 50%; inhibition [27]: < 50%
2 | CC(=O)Nc1cc(-c2c(-c3ccc(F)cc3)nc(S/C=C\C(=O)O)n2C2CCCCC2)ccn1 | < 50 | 133 | 0.8 | < 50 | < 50 | < 50 | < 50 | < 50 | < 50 | < 50 | < 50 | < 50 | < 50 | < 50 | < 50 | < 50 | < 50 | < 50 | < 50 | < 50 | inhibition (Homo sapiens [21]): < 50%; inhibition [22]: < 50%; inhibition [23]: < 50%; inhibition [24]: < 50%; inhibition [25]: < 50%; inhibition [26]: < 50%; inhibition [27]: < 50%
3 | CC(=O)Nc1cc(-c2c(-c3ccc(F)cc3)nc(S/C=C\C(=O)O)n2C2CC2)ccn1 | < 50 | 82 | 0.7 | < 50 | < 50 | < 50 | < 50 | < 50 | < 50 | < 50 | < 50 | < 50 | < 50 | < 50 | < 50 | < 50 | < 50 | < 50 | < 50 | < 50 | inhibition (Homo sapiens [21]): < 50%; inhibition [22]: < 50%; inhibition [23]: < 50%; inhibition [24]: < 50%; inhibition [25]: < 50%; inhibition [26]: < 50%; inhibition [27]: < 50%
4 | CC(=O)Nc1cc(-c2c(-c3ccc(F)cc3)nc(S/C=C\C(=O)O)n2CC2CCCO2)ccn1 (racemic) | < 50 | 35 | 0.2 | < 50 | < 50 | < 50 | < 50 | < 50 | < 50 | < 50 | < 50 | < 50 | < 50 | < 50 | < 50 | < 50 | < 50 | < 50 | < 50 | < 50 | inhibition (Homo sapiens [21]): < 50%; inhibition [22]: < 50%; inhibition [23]: < 50%; inhibition [24]: < 50%; inhibition [25]: < 50%; inhibition [26]: < 50%; inhibition [27]: < 50%
5 | COC(Cn1c(SC2CCC(C(=O)O)CC2O)nc(-c2ccc(F)cc2)c1-c1ccnc(NC(C)=O)c1)OC (stereo not given) | < 50 | 2010 | 14.9 | < 50 | < 50 | < 50 | < 50 | < 50 | < 50 | < 50 | < 50 | < 50 | < 50 | < 50 | < 50 | < 50 | < 50 | < 50 | < 50 | < 50 | inhibition (Homo sapiens [21]): < 50%; inhibition [22]: < 50%; inhibition [23]: < 50%; inhibition [24]: < 50%; inhibition [25]: < 50%; inhibition [26]: < 50%; inhibition [27]: < 50%
